Laboratory results: PMC10520873, “Biochemical investigation of the tryptophan biosynthetic enzyme anthranilate phosphoribosyltransferase in plants” (The Journal of Biological Chemistry, 2023)

Legend:
Type in all cases: biochemical
SmPAT1 [1] = molecular target: T1, SmPAT1 (Selaginella moellendorffii, UniProt Z9CFY1Y489); experiment: EnzChek pyrophosphate assay (PNP-coupled, […] nm)
T1 construct: gene PAT1; codon-optimized gene in pET28a, His-tagged, E. coli BL21 (DE3), Ni-NTA

PpPAT1 [2] = molecular target: T2, PpPAT1 (Physcomitrium patens, UniProt A9T6I7); experiment: EnzChek pyrophosphate assay (PNP-coupled, […] nm)
T2 construct: gene LOC112294424; codon-optimized gene in pET28a, His-tagged, E. coli BL21 (DE3), Ni-NTA

PvPAT1 [3] = molecular target: T3, PvPAT1 (Pistacia vera, UniProt Z9K6G7Q8L5); experiment: coupled pyrophosphate release to NADH oxidation, […] nm; Michaelis-Menten fit; conditions: 1 mM PR-PPi, 45 mM imidazole HCl pH 7.4, 30 °C
T3 construct: codon-optimized gene in pET28a, His-tagged, E. coli BL21 (DE3), Ni-NTA
T3 sequence (Z9K6G7Q8L5 1-311): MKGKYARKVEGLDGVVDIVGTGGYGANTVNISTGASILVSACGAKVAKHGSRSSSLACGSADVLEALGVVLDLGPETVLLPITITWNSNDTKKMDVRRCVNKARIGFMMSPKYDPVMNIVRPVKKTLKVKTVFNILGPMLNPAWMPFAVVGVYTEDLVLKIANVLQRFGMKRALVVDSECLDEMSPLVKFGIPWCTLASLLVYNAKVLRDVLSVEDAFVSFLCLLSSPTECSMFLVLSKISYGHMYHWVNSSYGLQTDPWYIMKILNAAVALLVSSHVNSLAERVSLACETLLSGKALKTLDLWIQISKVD

CsPAT1 = molecular target: T4, CsPAT1 (Citrus sinensis, UniProt A0ACB8LSF1); experiment: coupled pyrophosphate release to NADH oxidation, […] nm; substrate inhibition fit; conditions: 1 mM PR-PPi, 45 mM imidazole HCl pH 7.4, 30 °C
T4 construct: gene KPL71_006645; codon-optimized gene in pET28a, His-tagged, E. coli BL21 (DE3), Ni-NTA

PpPAT1 [4] = molecular target: T2, PpPAT1; experiment: as above; conditions: 1 mM PR-PPi, 45 mM imidazole HCl pH 7.4, 30 °C
SmPAT1 [5] = molecular target: T1, SmPAT1; experiment: as above; conditions: 1 mM PR-PPi, 45 mM imidazole HCl pH 7.4, 30 °C
JrPAT1 = molecular target: T5, JrPAT1 (Juglans regia, UniProt A0A6P9ES87); experiment: as above; conditions: 1 mM PR-PPi, 45 mM imidazole HCl pH 7.4, 30 °C
T5 construct: gene LOC109021987; codon-optimized gene in pET28a, His-tagged, E. coli BL21 (DE3), Ni-NTA

PvPAT1 [6] = molecular target: T3, PvPAT1; experiment: as above; conditions: 1 mM PR-PPi, 45 mM imidazole HCl pH 7.4, 30 °C
AtPAT1 = molecular target: T6, AtPAT1 (Arabidopsis thaliana, UniProt Q02166); experiment: as above; conditions: 1 mM PR-PPi, 45 mM imidazole HCl pH 7.4, 30 °C
T6 construct: gene PAT1; codon-optimized gene in pET28a, His-tagged, E. coli BL21 (DE3), Ni-NTA

Work on `N[C@@H](Cc1ccccc1)C(=O)O` [Phe] yielded an IC50 (SmPAT1 [1]) of 1980 µM.
`N[C@@H](Cc1ccc(O)cc1)C(=O)O` [Tyr] was tested, and the IC50 (PpPAT1 [2]) was 1180 µM.
Compound `Nc1c(O)cccc1C(=O)O` [3-hydroxyanthranilate] has a Km (PvPAT1 [3]; 3-HAA 0-0.5 mM) of 50 ± 5.3 µM.
For `Nc1ccccc1C(=O)O` [anthranilate], the “Ki” value (CsPAT1) was 4100 ± 600 µM, the “Ki” value (PpPAT1 [4]) was greater than 5000 µM and the “Ki” value (SmPAT1 [5]) was 3600 ± 800 µM. For the same compound, the “Ki” value (JrPAT1) was greater than 5000 µM, the “Ki” value (PvPAT1 [6]) was 1800 ± 400 µM and the Km (PvPAT1 [3]; anthranilate 0-0.75 mM) was 32.1 ± 4.7 µM. For the same compound, the “Ki” value (AtPAT1) was 4300 ± 400 µM.
